Measurements as given in ChEMBL document CHEMBL1140651, “N-(6,7-dichloro-2,3-dioxo-1,2,3,4-tetrahydroquinoxalin-5-yl)-N-alkylsulfonamides as peripherally restricted N-methyl-D-aspartate receptor antagonists for the treatment of pain” (Bioorg Med Chem Lett, 2007).
≈ marks a conversion by molar mass, not a printed value. Where “and” joins values, the source holds several entries; their conditions need not be identical. Equal entries are not always repeated.

Key:
[1] = target: Glutamate receptor ionotropic, NMDA 1 (Homo sapiens, UniProt Q05586); assay: Antagonist activity at human NMDA NR1 receptor; format: functional
[2] = system: Liver microsomes; assay: Metabolic stability in rat liver microsome; format: ADME
[3] = Permeability from apical to basolateral side of the Caco-2 cell membrane; format: ADME, cell-based; conditions: human, read-out: permeability
[4] = Solubility of the compound; format: physicochemical
[5] = system: Liver microsomes; assay: Metabolic stability in human liver microsome; format: ADME
[6] = system: Caco-2; assay: Ratio of permeability from basolateral to apical over apical to basolateral side of the Caco-2 cell membrane; format: ADME, cell-based; conditions: human
[7] = AUC in Sprague-Dawley rat at 5 mg/kg, po; format: ADME, organism-based; design: dose 5 mg/kg, route oral; conditions: plasma
[8] = (§1) Bioavailability in Sprague-Dawley rat at 5 mg/kg, po; format: ADME, organism-based; conditions: Sprague-Dawley, in vivo
[9] = system: Rattus norvegicus; assay: Anticonvulsant activity in Swiss Webster mouse at 100 mg/kg by MES assay; format: functional
[10] = system: Rattus norvegicus; assay: as §1; format: ADME, organism-based; conditions: in vivo
[11] = system: Rattus norvegicus; assay: […] in […] at 300 mg/kg, ip by MES assay; format: functional; conditions: route intraperitoneal
[12] = system: Rattus norvegicus; assay: Analgesic activity in rat formalin pain model assessed as reduction in pain response at 50 mg/kg, ip; format: functional; design: scale not given: the % may be the effect or the level left; conditions: route intraperitoneal
[13] = system: Rattus norvegicus; assay: Analgesic activity in rat formalin pain model assessed as reduction in pain response at 50 mg/kg, po; format: functional; design: scale not given: the % may be the effect or the level left

Compound	IC50 [1]	Activity [2]	Papp A→B [3] [×10⁻⁶ cm/s]	solubility [4] [µg/mL]	Activity [5]	Ratio [6]	AUC [7] [ng·h/mL]	bioavailability [8] [%]	F [10]	Activity [9] [%]	Activity [11] [%]	Activity [12] [%]	Activity [13] [%]
CS(=O)(=O)N(CC1CCCCO1)c1c(Cl)c(Cl)cc2[nH]c(=O)c(=O)[nH]c12 (stereo unspecified)	39 nM	Active	< 0.01	25 (≈ 59.2 µM)	Active		1490	53					
CS(=O)(=O)N(CC1CCCO1)c1c(Cl)c(Cl)cc2[nH]c(=O)c(=O)[nH]c12 (stereo unspecified)	59 nM	Active	1.52	16 (≈ 39.2 µM)	Active	7.55	922	31					
CCc1cc2[nH]c(=O)c(=O)[nH]c2c(N(CCCOC)S(C)(=O)=O)c1Cl	49 nM	Active	0.01	78 (≈ 200 µM)	Active		632	47					
CCOCCOCCN(c1c(Cl)c(Cl)cc2[nH]c(=O)c(=O)[nH]c12)S(C)(=O)=O	166 nM	Active	0.97	88 (≈ 200 µM)	Active	12.4	840	90					
CCc1c(Cl)cc2[nH]c(=O)c(=O)[nH]c2c1N(CCO)S(C)(=O)=O	58 nM	Active		72 (≈ 199 µM)	Active		183	1		0			
COCCN(c1c(C)c(Cl)cc2[nH]c(=O)c(=O)[nH]c12)S(C)(=O)=O	74 nM	Active	0.01	72 (≈ 199 µM)	Active		2620	100					
CS(=O)(=O)N(CC(=O)O)c1c(Cl)c(Cl)cc2[nH]c(=O)c(=O)[nH]c12	2 nM	Active		76 (≈ 199 µM)	Active		393			100			
CS(=O)(=O)N(CCC(F)(F)F)c1c(Cl)c(Cl)cc2[nH]c(=O)c(=O)[nH]c12	22 nM and 11 nM and 18 nM	Active	0.41	56 (≈ 133 µM)	Active	15					0	40	
CS(=O)(=O)N(Cc1cccc(F)c1)c1c(Cl)c(Cl)cc2[nH]c(=O)c(=O)[nH]c12	45 nM	Active	1.75	23 (≈ 53.2 µM)	Active	4.07	589	10					
COCCN(c1c(Cl)c(C)cc2[nH]c(=O)c(=O)[nH]c12)S(C)(=O)=O	77 nM	Active	0.14	72 (≈ 199 µM)	Active	30.6	1190	57					
COc1cccc(CN(c2c(Cl)c(Cl)cc3[nH]c(=O)c(=O)[nH]c23)S(C)(=O)=O)c1	12 nM	Active	3.43	40 (≈ 90 µM)	Active	4.67	152	8					
Cc1cc2[nH]c(=O)c(=O)[nH]c2c(N(CC(=O)O)S(C)(=O)=O)c1Cl	1 nM	Active		72 (≈ 199 µM)	Active		155	5		62.5			

More lines, main results first:

IC50 [1]	Activity [2]	Papp A→B [3] [×10⁻⁶ cm/s]	solubility [4] [µg/mL]	Activity [5]	Ratio [6]	AUC [7] [ng·h/mL]	bioavailability [8] [%]	F [10]	Compound	Activity [9] [%]	Activity [11] [%]	Activity [12] [%]	Activity [13] [%]
209 nM	Active	10	79 (≈ 199 µM)	Active	1.38	2260	78		CCOCCN(c1c(Cl)c(Cl)cc2[nH]c(=O)c(=O)[nH]c12)S(C)(=O)=O				
2 nM	Active			Active		1500	7		Cc1c(Cl)cc2[nH]c(=O)c(=O)[nH]c2c1N(CC(=O)O)S(C)(=O)=O	87.5			
41 nM	Active		76 (≈ 199 µM)	Active		136	1		CS(=O)(=O)N(CCCO)c1c(Cl)c(Cl)cc2[nH]c(=O)c(=O)[nH]c12				
	Active	2.06	79 (≈ 199 µM)	Active	6.05		41	43% and 39%	COCCCN(c1c(Cl)c(Cl)cc2[nH]c(=O)c(=O)[nH]c12)S(C)(=O)=O		20		
19 nM	Active	0.44	82 (≈ 200 µM)	Active	28.4	1270	33		CCOCCCN(c1c(Cl)c(Cl)cc2[nH]c(=O)c(=O)[nH]c12)S(C)(=O)=O				
40 nM	Active		76 (≈ 199 µM)	Active		680	1		CC(O)CN(c1c(Cl)c(Cl)cc2[nH]c(=O)c(=O)[nH]c12)S(C)(=O)=O (stereo unspecified)				
4 nM	Active		70 (≈ 201 µM)	Active		791	9		Cc1cc2[nH]c(=O)c(=O)[nH]c2c(N(CCO)S(C)(=O)=O)c1Cl	0			
109 nM and 20 nM and 27 nM	Active			Active		3920	32		CCS(=O)(=O)N(CCC(F)(F)F)c1c(Cl)c(Cl)cc2[nH]c(=O)c(=O)[nH]c12		0	60	30
38 nM	Active	0.01	76 (≈ 199 µM)	Active		1080	33		COCCN(c1c(Cl)c(Cl)cc2[nH]c(=O)c(=O)[nH]c12)S(C)(=O)=O				
14 nM	Active		70 (≈ 201 µM)	Active		605	4		Cc1c(Cl)cc2[nH]c(=O)c(=O)[nH]c2c1N(CCO)S(C)(=O)=O	0			
728 nM	Active	0.01	72 (≈ 199 µM)	Active	0.1				COCCCN(c1cc(Cl)cc2[nH]c(=O)c(=O)[nH]c12)S(C)(=O)=O				
